In US20160095843A1, “PYRAZOLOPYRROLIDINE DERIVATIVES AND THEIR USE IN THE TREATMENT OF DISEASE” (NOVARTIS AG, priority 2013, published 2016):

Experiments:
MV-4-11 cells = experiment: Cell growth inhibition assay (CellTiter-Glo), MV-4-11; type: cell-based; details: Homo sapiens, MV4-11
Protocol: (§1) Cell Growth Inhibition Assay
(§2) The human leukemia cell lines MV-4-11, THP-1 and K-562 were employed to characterize the effect of BET inhibitors on cellular proliferation and viability. Cells were obtained from the American Type Culture Collection (ATCC) and cultured at 37° C. in a humidified 5% CO2 incubator in the following media: MV-4-11: DMEM high glucose (Animed #1-26F01-I), 10% FCS (Animed #2-01F26-I), 4 mM L-Glutamine (Animed #5-10K50), 1 mM Sodium Pyruvate (Animed # G03625P), 1× Penicillin-Streptomycin (Animed # F12478P); K-562: Iscove's MEM (Animed #1-28F16-I), 10% FCS (Animed #2-01F26-I), 4 mM L-Glutamine (Animed #5-10K50), 1× Penicillin-Streptomycin (Animed # F12478P); THP-1: RPMI-1640 (Animed #1-41F01-I), 10% FCS (Animed #2-01F26-I), 2 mM L-Glutamine (Animed #5-10K50), 10 mM HEPES (Animed #5-31F100), 1 mM Sodium Pyruvate (Animed # G03625P), 1× Penicillin-Streptomycin (Animed # F12478P). The AML lines MV-4-11 and THP-1 are very sensitive to BET inhibitors and show massive cell death upon BET inhibition (Zuber et al., Nature, 478 (2011), 524-8). Compound-mediated suppression of cell proliferation/viability was assessed by quantification of cellular ATP levels using the CellTiter-Glo (CTG) reagent (Promega). Briefly, cells were seeded in 20 μl fresh medium into 384-well plates, followed by addition of 5 μL medium containing compound dilutions at 5-fold their final intended concentration. Dose-response effects were assessed by 3-fold serial dilutions of the test compound, starting at 10 μM. Following incubation of the cells for 4 days at 37° C. and 5% CO2, the effect of inhibitors on cell viability was quantified following addition of 20 μl CTG and luminescence quantification (integration time: 100 ms) as per vendor manual, using a correspondingly equipped Tecan M200 multi-mode platereader (TECAN, Switzerland). For data analysis, the assay background value determined in wells containing medium, but no cells, was subtracted from all data points. To enable differentiation of cytotoxic from cytostatic compounds, the number of viable cells is assessed relative to that observed at the time of compound addition using a separate cell plate (day 0). The effect of a particular test compound concentration on cell proliferation/viability is expressed as percentage of the background- and day 0-corrected luminescence reading obtained for cells treated with vehicle only (DMSO, 0.1% final concentration), which is set as 100%, whereas that luminescence reading for wells containing medium is set as −100%. Compound concentrations leading to half-maximal (1050) and total growth inhibition (TGI) were determined using standard four parameter curve fitting.

THP-1 cells = experiment: Cell growth inhibition assay (CellTiter-Glo), THP-1; type: cell-based; details: Homo sapiens
Protocol: as §1, §2

K-562 cells = experiment: Cell growth inhibition assay (CellTiter-Glo), K-562; type: cell-based, human; details: Homo sapiens, K562
Protocol: as §1, §2

Compound | GI50 (MV-4-11 cells) [nM] | GI50 (THP-1 cells) [nM] | GI50 (K-562 cells) [nM]
CCOc1c2c(nn1C)C(=O)N(c1cc(C)c(=O)n(C)c1)C2c1ccc(Cl)cc1 (stereo not drawn) [Example 76, 4-(4-chlorophenyl)-5-(1,5-dimethyl-6-oxo-1,6-dihydropyridin-3-yl)-3-ethoxy-2-methyl-4,5-dihydropyrrolo-[3,4-c]pyrazol-6(2H)-one] | 53.2 | 140 | 339
COc1c2c(nn1C)C(=O)N(c1cc(C)c(=O)n(C)c1)C2c1ccc(Cl)cc1 (stereo not drawn) [Example 77, 4-(4-chlorophenyl)-5-(1,5-dimethyl-6-oxo-1,6-dihydropyridin-3-yl)-3-methoxy-2-methyl-4,5-dihydropyrrolo-[3,4-c]pyrazol-6(2H)-one] | 88.8 | 178 | 569
CCc1nn(CCO)c2c1C(c1ccc(Cl)cc1)N(c1cc(C)c(=O)n(C)c1)C2=O (stereo not drawn) [Example 78, 4-(4-chlorophenyl)-5-(1,5-dimethyl-6-oxo-1,6-dihydropyridin-3-yl)-3-ethyl-1-(2-hydroxyethyl)-4,5-dihydropyrrolo-[3,4-c]pyrazol-6(1H)-one] | 52 | 85.4 | 392
CCc1nn(CCO)c2c1C(c1ccc(Cl)cc1)N(c1cc(C)c3onc(C)c3c1)C2=O (stereo not drawn) [Example 79, 4-(4-chlorophenyl)-5-(3,7-dimethylbenzo[d]isoxazol-5-yl)-3-ethyl-1-(2-hydroxyethyl)-4,5-dihydropyrrolo-[3,4-c]pyrazol-6(1H)-one] | 348 | 255 | 920
CCc1c2c(nn1CCO)C(=O)N(c1cc(C)c3onc(C)c3c1)C2c1ccc(Cl)cc1 (stereo not drawn) [Example 80, 4-(4-chlorophenyl)-5-(3,7-dimethylbenzo[d]isoxazol-5-yl)-3-ethyl-2-(2-hydroxyethyl)-4,5-dihydropyrrolo[3,4-c]pyrazol-6(2H)-one] | 356 | 354 | 868
Cc1ncccc1-n1nc2c(c1C)C(c1ccc(Cl)cc1)N(c1cc(C)c(=O)n(C)c1)C2=O (stereo not drawn) [Example 81, 4-(4-chlorophenyl)-5-(1,5-dimethyl-6-oxo-1,6-dihydropyridin-3-yl)-3-methyl-2-(2-methylpyridin-3-yl)-4,5-dihydropyrrolo-[3,4-c]pyrazol-6(2H)-one] | 95.6 | 261 | 883
Cc1ncccc1-n1nc(C)c2c1C(=O)N(c1cc(C)c(=O)n(C)c1)C2c1ccc(Cl)cc1 (stereo not drawn) [Example 82, 4-(4-chlorophenyl)-5-(1,5-dimethyl-6-oxo-1,6-dihydropyridin-3-yl)-3-methyl-1-(2-methylpyridin-3-yl)-4,5-dihydropyrrolo[3,4-c]pyrazol-6(1H)-one] | 94.8 | 222 | 920
Cc1nn(-c2cncn2C)c2c1C(c1ccc(Cl)cc1)N(c1cc(C)c(=O)n(C)c1)C2=O (stereo not drawn) [Example 83, 4-(4-chlorophenyl)-5-(1,5-dimethyl-6-oxo-1,6-dihydropyridin-3-yl)-3-methyl-1-(1-methyl-1H-imidazol-5-yl)-4,5-dihydropyrrolo[3,4-c]pyrazol-6(1H)-one] | 100 | 164 | 719
CCc1nn(C2CC2)c2c1C(c1ccc(Cl)cc1)N(c1cc(OC)c3nnc(C)n3c1)C2=O (stereo not drawn) [Example 84, 4-(4-chlorophenyl)-1-cyclopropyl-3-ethyl-5-(8-methoxy-3-methyl-[1,2,4]triazolo[4,3-a]pyridin-6-yl)-4,5-dihydropyrrolo-[3,4-c]pyrazol-6(1H)-one] | 58.3 | 86.9 | 384
CCc1nn(CCOC)c2c1C(c1ccc(Cl)cc1)N(c1cc(C)c(=O)n(C)c1)C2=O (stereo not drawn) [Example 86, 4-(4-chlorophenyl)-5-(1,5-dimethyl-6-oxo-1,6-dihydropyridin-3-yl)-3-ethyl-1-(2-methoxyethyl)-4,5-dihydropyrrolo[3,4-c]pyrazol-6(1H)-one] | 34.6 | 63.8 | 229
